According to patent US20070093520A1, “Method of treatment of diarrhea-predominant irritable bowel syndrome in a subject” (priority 2005, published 2007):

Tested on: diarrhea-predominant IBS subjects
Assay: 3007 Study: open-label 52-week safety study, adverse events and withdrawals
Conditions: Placebo/Cilansetron 2 mg

## Cc1nccn1C[C@H]1CCc2c(c3cccc4c3n2CCC4)C1=O [cilansetron, (R)-(−)-4,5,6,8,9,10-hexahydro-10-[(2-methyl-1H-imidazol-1-yl)methyl]-11H-pyrido-[3,2,1-jk]-carbazol-11-one]
  TEAE: Protein Urine Present: 1 (<1%) n (%)
  TEAE: Pruritus Ani: 1 (<1%) n (%)
  TEAE: Rectal Cramps: 0 n (%)
  TEAE: Rectal Disorder NOS: 1 (<1%) n (%)
  TEAE: Rectal Haemorrhage: 4 (1%) n (%)
  TEAE: Rectal Tenesmus: 2 (<1%) n (%)
  TEAE: Red Blood Cell Analyses: 0 n (%)
  TEAE: Red Blood Cells Urine: 1 (<1%) n (%)
  TEAE: Renal Bruit: 1 (<1%) n (%)
  TEAE: Renal Function Analyses: 3 (1%) n (%)
  TEAE: Reproductive Organ and Breast Histopathology Procedures: 0 n (%)
  TEAE: Respiratory Tract Infection NOS: 0 n (%)
  TEAE: Rheumatoid Arthritis: 1 (<1%) n (%)
  TEAE: Rheumatoid Arthritis Aggravated: 1 (<1%) n (%)
  TEAE: Rheumatoid Arthropathies: 2 (<1%) n (%)
  TEAE: Rhinoviral Infections: 10 (4%) n (%)
  TEAE: Rib Fracture: 0 n (%)
  TEAE: Road Traffic Accident: 0 n (%)
  TEAE: Rotator Cuff Syndrome: 1 (<1%) n (%)
  TEAE: Seizures and Seizure Disorders NEC: 0 n (%)
  TEAE: Sinus Headache: 0 n (%)
  TEAE: Sinusitis Acute NOS: 1 (<1%) n (%)
  TEAE: Sinusitis NOS: 13 (5%) n (%)
  TEAE: Site Specific Injuries NEC: 0 n (%)
  TEAE: Skeletal and Cardiac Muscle Analyses: 8 (3%) n (%)
  TEAE: Skin Fungal Infection NOS: 0 n (%)
  TEAE: Skin Infection NOS: 1 (<1%) n (%)
  TEAE: Skin Structures and Soft Tissue Infections: 2 (<1%) n (%)
  TEAE: Sleep Apnoea Syndrome: 2 (<1%) n (%)
  TEAE: Sleep Apnoeas: 2 (<1%) n (%)
  TEAE: Soft Tissue Disorders NEC: 0 n (%)
  TEAE: Somnolence: 1 (<1%) n (%)
  TEAE: Speech and Language Abnormalities: 1 (<1%) n (%)
  TEAE: Spinal Cord and Nerve Root Disorders NEC: 1 (<1%) n (%)
  TEAE: Spondylitic Myelopathy: 1 (<1%) n (%)
  TEAE: Spondyloarthropathies: 0 n (%)
  TEAE: Spondylosis: 0 n (%)
  TEAE: Staphylococcal Infection NOS: 0 n (%)
  TEAE: Staphylococcal Infections: 0 n (%)
  TEAE: Status Epilepticus: 0 n (%)
  TEAE: Stomach Discomfort: 1 (<1%) n (%)
  TEAE: Streptococcal Infection NOS: 0 n (%)
  TEAE: Streptococcal Infections: 3 (1%) n (%)
  TEAE: Stress Fracture: 0 n (%)
  TEAE: Temporomandibular Joint Disorder NOS: 0 n (%)
  TEAE: Tendon Disorders: 3 (1%) n (%)
  TEAE: Tendonitis: 2 (<1%) n (%)
  TEAE: Tension Headaches: 0 n (%)
  TEAE: Thoracic Cage Fractures and Dislocations: 0 n (%)
  TEAE: Tinea Cruris: 1 (<1%) n (%)
  TEAE: Tinea Infections: 1 (<1%) n (%)
  TEAE: Tinea Pedis: 0 n (%)
  TEAE: Tissue Enzyme Analyses NEC: 1 (<1%) n (%)
  TEAE: Tongue Coated: 0 n (%)
  TEAE: Tongue Signs and Symptoms: 0 n (%)
  TEAE: Tooth Abscess: 1 (<1%) n (%)
  TEAE: Tooth Disorder NOS: 0 n (%)
  TEAE: Tooth Impacted: 0 n (%)
  TEAE: Tooth Infection: 1 (<1%) n (%)
  TEAE: Toothache: 1 (<1%) n (%)
  TEAE: Total Number of Subjects with at Least One TEAE: 217 (78%) n (%)
  TEAE: Transient Global Amnesia: 0 n (%)
  TEAE: Tremor: 1 (<1%) n (%)
  TEAE: Tremor (Excl Congenital): 1 (<1%) n (%)
  TEAE: Trigger Finger: 1 (<1%) n (%)
  TEAE: Triglyceride Analyses: 4 (1%) n (%)
  TEAE: Umbilical Hernia NOS: 0 n (%)
  TEAE: Umbilical Hernias: 0 n (%)
  TEAE: Upper Limb Fractures and Dislocations: 1 (<1%) n (%)
  TEAE: Upper Respiratory Tract Infection NOS: 8 (3%) n (%)
  TEAE: Upper Respiratory Tract Infections - Pathogen Class Unspecified: 19 (7%) n (%)
  TEAE: Urinalysis NEC: 6 (2%) n (%)
  TEAE: Urinary Tract Infection NOS: 10 (4%) n (%)
  TEAE: Urinary Tract Infections: 12 (4%) n (%)
  TEAE: Urine Analysis Abnormal NOS: 0 n (%)
  TEAE: Urine Bilirubin Increased: 1 (<1%) n (%)
  TEAE: Urine Ketone Body Present: 2 (<1%) n (%)
  TEAE: Urine Leukocyte Esterase Positive: 2 (<1%) n (%)
  TEAE: Urobilin Urine Present: 0 n (%)
  TEAE: Vascular Auscultatory Investigations: 2 (<1%) n (%)
  TEAE: Vascular Tests NEC (Incl Blood Pressure): 2 (<1%) n (%)
  TEAE: Vasovagal Attack: 0 n (%)
  TEAE: Viral Infection NOS: 2 (<1%) n (%)
  TEAE: Viral Infections NEC: 8 (3%) n (%)
  TEAE: Vomiting NOS: 9 (3%) n (%)
  TEAE: Weight Decreased: 1 (<1%) n (%)
  TEAE: Weight Increased: 0 n (%)
  TEAE: White Blood Cell Analyses: 1 (<1%) n (%)
  TEAE: White Blood Cell Count Decreased: 0 n (%)
  TEAE: White Blood Cells Urine Positive: 0 n (%)
N=279
  TEAE leading to permanent discontinuation: Abdominal Distension: 2 (<1%) n (%)
  TEAE leading to permanent discontinuation: Abdominal Pain Aggravated: 0 n (%)
  TEAE leading to permanent discontinuation: Abdominal Pain Lower: 2 (<1%) n (%)
  TEAE leading to permanent discontinuation: Abdominal Pain NOS: 6 (2%) n (%)
  TEAE leading to permanent discontinuation: Abdominal Pain Upper: 3 (1%) n (%)
  TEAE leading to permanent discontinuation: Alanine Aminotransferase Increased: 0 n (%)
  TEAE leading to permanent discontinuation: Angina Pectoris: 0 n (%)
  TEAE leading to permanent discontinuation: Appendicitis: 0 n (%)
  TEAE leading to permanent discontinuation: Asthma Aggravated: 0 n (%)
  TEAE leading to permanent discontinuation: Asthma NOS: 0 n (%)
  TEAE leading to permanent discontinuation: Back Pain: 1 (<1%) n (%)
  TEAE leading to permanent discontinuation: Bladder Prolapse: 1 (<1%) n (%)
  TEAE leading to permanent discontinuation: Blood Bilirubin Increased: 0 n (%)
  TEAE leading to permanent discontinuation: Blood Pressure Increased: 0 n (%)
  TEAE leading to permanent discontinuation: Blood Urine Present: 0 n (%)
  TEAE leading to permanent discontinuation: Bone Neoplasm Malignant: 0 n (%)
  TEAE leading to permanent discontinuation: Cardiac Disorders: 0 n (%)
  TEAE leading to permanent discontinuation: Chest Discomfort: 1 (<1%) n (%)
  TEAE leading to permanent discontinuation: Chest Pain: 1 (<1%) n (%)
  TEAE leading to permanent discontinuation: Chest Wall Pain: 1 (<1%) n (%)
  TEAE leading to permanent discontinuation: Colitis Ischaemic: 1 (<1%) n (%)
  TEAE leading to permanent discontinuation: Constipation: 21 (8%) n (%)
  TEAE leading to permanent discontinuation: Cough: 1 (<1%) n (%)
  TEAE leading to permanent discontinuation: Dehydration: 0 n (%)
  TEAE leading to permanent discontinuation: Depression: 1 (<1%) n (%)
  TEAE leading to permanent discontinuation: Diarrhoea Aggravated: 1 (<1%) n (%)
  TEAE leading to permanent discontinuation: Diarrhoea Haemorrhagic: 1 (<1%) n (%)
  TEAE leading to permanent discontinuation: Diarrhoea NOS: 2 (<1%) n (%)
  TEAE leading to permanent discontinuation: Dizziness: 2 (<1%) n (%)
  TEAE leading to permanent discontinuation: Dyspepsia: 1 (<1%) n (%)
  TEAE leading to permanent discontinuation: Ear and Labyrinth Disorders: 0 n (%)
  TEAE leading to permanent discontinuation: Epigastric Discomfort: 1 (<1%) n (%)
  TEAE leading to permanent discontinuation: Eructation: 0 n (%)
  TEAE leading to permanent discontinuation: Eye Disorders: 1 (<1%) n (%)
  TEAE leading to permanent discontinuation: Faecal Abnormality NOS: 0 n (%)
  TEAE leading to permanent discontinuation: Faecal Impaction: 1 (<1%) n (%)
  TEAE leading to permanent discontinuation: Faecal Incontinence: 1 (<1%) n (%)
  TEAE leading to permanent discontinuation: Faeces Hard: 0 n (%)
  TEAE leading to permanent discontinuation: Fatigue: 1 (<1%) n (%)
  TEAE leading to permanent discontinuation: Fibroma NOS: 1 (<1%) n (%)
  TEAE leading to permanent discontinuation: Flatulence: 5 (2%) n (%)
  TEAE leading to permanent discontinuation: Gastric Irritation: 0 n (%)
  TEAE leading to permanent discontinuation: Gastrointestinal Disorders: 40 (14%) n (%)
  TEAE leading to permanent discontinuation: Gastrointestinal Motility Disorder NOS: 1 (<1%) n (%)
  TEAE leading to permanent discontinuation: General Disorders and Administration Site Conditions: 4 (1%) n (%)
  TEAE leading to permanent discontinuation: Haemorrhoidal Haemorrhage: 1 (<1%) n (%)
  TEAE leading to permanent discontinuation: Hallucination NOS: 1 (<1%) n (%)
  TEAE leading to permanent discontinuation: Hallucination, Auditory: 1 (<1%) n (%)
  TEAE leading to permanent discontinuation: Headache NOS: 3 (1%) n (%)
  TEAE leading to permanent discontinuation: Headache NOS Aggravated: 0 n (%)
  TEAE leading to permanent discontinuation: Heart Rate Increased: 0 n (%)
  TEAE leading to permanent discontinuation: Hepatobiliary Disorders: 0 n (%)
  TEAE leading to permanent discontinuation: Hepatosplenomegaly NOS: 0 n (%)
  TEAE leading to permanent discontinuation: Hiatus Hernia: 0 n (%)
  TEAE leading to permanent discontinuation: Investigations: 0 n (%)
  TEAE leading to permanent discontinuation: Irritable Bowel Syndrome Aggravated: 0 n (%)
  TEAE leading to permanent discontinuation: Lethargy: 1 (<1%) n (%)
  TEAE leading to permanent discontinuation: Metabolism and Nutrition Disorders: 0 n (%)
  TEAE leading to permanent discontinuation: Migraine NOS: 0 n (%)
  TEAE leading to permanent discontinuation: Muscle Cramps: 0 n (%)
  TEAE leading to permanent discontinuation: Musculoskeletal and Connective Tissue Disorders: 2 (<1%) n (%)
  TEAE leading to permanent discontinuation: Nausea: 0 n (%)
  TEAE leading to permanent discontinuation: Neoplasms Benign, Malignant and Unspecified (Incl Cysts and Polyps): 3 (1%) n (%)
  TEAE leading to permanent discontinuation: Nervous System Disorders: 4 (1%) n (%)
  TEAE leading to permanent discontinuation: Pregnancy, Puerperium and Perinatal Conditions: 0 n (%)
  TEAE leading to permanent discontinuation: Pruritus NOS: 0 n (%)
  TEAE leading to permanent discontinuation: Psychiatric Disorders: 1 (<1%) n (%)
  TEAE leading to permanent discontinuation: Psychotic Disorder NOS: 1 (<1%) n (%)
  TEAE leading to permanent discontinuation: Rash Macular: 1 (<1%) n (%)
  TEAE leading to permanent discontinuation: Rash NOS: 1 (<1%) n (%)
  TEAE leading to permanent discontinuation: Rectal Disorder NOS: 1 (<1%) n (%)
  TEAE leading to permanent discontinuation: Rectal Haemorrhage: 2 (<1%) n (%)
  TEAE leading to permanent discontinuation: Rectal Tenesmus: 1 (<1%) n (%)
  TEAE leading to permanent discontinuation: Renal and Urinary Disorders: 1 (<1%) n (%)
  TEAE leading to permanent discontinuation: Respiratory, Thoracic and Mediastinal Disorders: 1 (<1%) n (%)
  TEAE leading to permanent discontinuation: Skin and Subcutaneous Tissue Disorders: 3 (1%) n (%)
  TEAE leading to permanent discontinuation: Somnolence: 0 n (%)
  TEAE leading to permanent discontinuation: Stomach Discomfort: 1 (<1%) n (%)
  TEAE leading to permanent discontinuation: Suicidal Ideation: 1 (<1%) n (%)
